Results as given in ChEMBL document CHEMBL4138242, “Synthesis and antibacterial evaluation of novel cationic chalcone derivatives possessing broad spectrum antibacterial activity” (Eur J Med Chem, 2018).

Key:
Staphylococcus aureus [1] = experiment: Disruption of 24 hrs cultured Staphylococcus aureus ATCC 29213 biofilm assessed as cell viability in biofilm at 32 ug/ml after 24 hrs by crystal violet staining-based assay (reference value: 15.96 log10CFU/ml); assay type: functional
Staphylococcus aureus [2] = experiment: Disruption of 24 hrs cultured Staphylococcus aureus ATCC 29213 biofilm assessed as cell viability in biofilm at 128 ug/ml after 24 hrs by crystal violet staining-based assay (reference value: 15.96 log10CFU/ml); assay type: functional

`CCCCCCCC[N+](C)(C)CC(=O)Nc1ccc(C(=O)/C=C/c2ccccc2F)cc1.[Cl-]` gave an Activity (Staphylococcus aureus [1]) of 9.59 log10CFU/ml and an Activity (Staphylococcus aureus [2]) of 8.95 log10CFU/ml.
